Experimental data taken from ChEMBL document CHEMBL3297657, “Synthesis and antitumor activities of novel α-aminophosphonate derivatives containing an alizarin moiety” (Eur J Med Chem, 2014).
Active and inactive are the calls of the source. The rule behind the calls is not given here.

How the values were obtained:
NCI-H460 [1] = test: Induction of apoptosis in human NCI-H460 cells assessed as change in mitochondrial membrane potential at 5 to 20 uM after 24 hrs by JC-1 staining-based fluorescence microscopy relative to control; format: functional, cell-based
NCI-H460 [2] = test: Induction of apoptosis in human NCI-H460 cells assessed as viable cells at 8 uM after 24 hrs by Annexin V/propidium iodide staining-based flow cytometry (reference value: 72.2%); format: functional; conditions: NCI-H460, 24 h, read-out: Activity
NCI-H460 [3] = test: Induction of apoptosis in human NCI-H460 cells assessed as viable cells at 20 uM after 24 hrs by Annexin V/propidium iodide staining-based flow cytometry (reference value: 72.2%); format: functional; conditions: NCI-H460, 24 h, read-out: Activity
NCI-H460 [4] = test: Induction of apoptosis in human NCI-H460 cells assessed as caspase-9 activation after 24 hrs by qRT-PCR analysis; format: functional, cell-based
A549 = test: cells; conditions: Homo sapiens, A549, 48 h
Description: Cytotoxicity against human A549 cells after 48 hrs by MTT assay

In the case of `CCOP(=O)(OCC)C(NC(=O)C(C)Oc1ccc2c(c1O)C(=O)c1ccccc1C2=O)c1cccc2ccccc12` (stereo not given), the Activity (NCI-H460 [1]) is reported as “Active”, the viability at 8 µM (NCI-H460 [2]) is reported as 47.5% and the viability at 20 µM (NCI-H460 [3]) is reported as 43.4%. For the same compound, the Activity (NCI-H460 [4]) was “Dose-dependent effect” and the IC50 (A549) was 15.9 µM.

For `CCOP(=O)(OCC)C(NC(=O)C(C)Oc1ccc2c(c1O)C(=O)c1ccccc1C2=O)c1ccccc1OC` (stereo not given), the Activity (NCI-H460 [1]) was “Active”, the viability at 8 µM (NCI-H460 [2]) was 47.5% and the viability at 20 µM (NCI-H460 [3]) was 30.7%. The Activity (NCI-H460 [4]) was “Dose-dependent effect” and the IC50 (A549) was 12.3 µM.

For `CCOP(=O)(OCC)C(NC(=O)C(C)Oc1ccc2c(c1O)C(=O)c1ccccc1C2=O)c1ccccc1F` (stereo not given), the Activity (NCI-H460 [1]) was “Active”, the viability at 8 µM (NCI-H460 [2]) was 46.3% and the viability at 20 µM (NCI-H460 [3]) was 33.6%. For the same compound, the Activity (NCI-H460 [4]) was “Dose-dependent effect” and the IC50 (A549) was 6.76 µM.
